Like-named read-outs stand apart in the source and are kept apart here.
Test system: SARS-CoV-2 strain USA-WA1/2020
Experiment: microbe, parasite or virus in culture
Type: cell-based
Conditions: Severe acute respiratory syndrome coronavirus 2, HeLa-ACE2, 24 h, read-out: EC50, uM (Hela)
[1] = HeLa-ACE2 cells, SARS-CoV-2 infection, 24 h, class symbols
[2] = HeLa-ACE2 cells, SARS-CoV-2 infection, 24 h

Structure (SMILES) | EC50 [1] [µM] | EC50 [2] [µM] | further results
CC(C)C[C@H](NC(=O)c1c[nH]c2cccnc12)C(=O)N[C@@H](C[C@@H]1CCNC1=O)C(=O)COC(F)(F)F [Compound 263, N-((S)-4-methyl-1-oxo-1-(((S)-3-oxo-1-((S)-2-oxopyrrolidin-3-yl)-4-(trifluoromethoxy)butan-2-yl)amino)pentan-2-yl)-1H-pyrrolo[3,2-b]pyridine-3-carboxamide] | 0.2 to 0.5 |  | 
COc1cccc(OC)c1NC(=O)C(=O)N[C@@H](CC(C)C)C(=O)N[C@@H](C[C@@H]1CCNC1=O)C(=O)COC(F)(F)F [Compound 164, N1-(2,6-dimethoxyphenyl)-N2-((S)-4-methyl-1-oxo-1-(((S)-3-oxo-1-((S)-2-oxopyrrolidin-3-yl)-4-(trifluoromethoxy)butan-2-yl)amino)pentan-2-yl)oxalamide] | < 0.05 |  | 
C[C@@H]1C[C@H]2[C@H](C[C@@H](C(=O)N[C@@H](C[C@@H]3CCNC3=O)C(=O)COC(F)(F)F)N2C(=O)C(=O)NC(C)(C)C)O1 [Compound 551, (2R,3aS,5S,6aS)-4-(2-(tert-butylamino)-2-oxoacetyl)-2-methyl-N-((S)-3-oxo-1-((S)-2-oxopyrrolidin-3-yl)-4-(trifluoromethoxy)butan-2-yl)hexahydro-2H-furo[3,2-b]pyrrole-5-carboxamide] |  |  | EC50 (HeLa-ACE2 cells, SARS-CoV-2 infection, 24 h, given as bound): > 1 µM
Cc1ccccc1N(C)C(=O)C(=O)N[C@@H](CC(C)C)C(=O)N[C@@H](C[C@@H]1CCNC1=O)C(=O)COc1c(F)c(F)cc(F)c1F [Compound 107, N1-methyl-N2-((S)-4-methyl-1-oxo-1-(((S)-3-oxo-1-((S)-2-oxopyrrolidin-3-yl)-4-(2,3,5,6-tetrafluorophenoxy)butan-2-yl)amino)pentan-2-yl)-N1-(o-tolyl)oxalamide] | 0.2 to 0.5 |  | 
CC(C)C[C@H](NC(=O)c1ncc(-c2ccccc2)[nH]1)C(=O)N[C@@H](C[C@@H]1CCNC1=O)C(=O)COC(F)(F)F [Compound 224, N-((S)-4-methyl-1-oxo-1-(((S)-3-oxo-1-((S)-2-oxopyrrolidin-3-yl)-4-(trifluoromethoxy)butan-2-yl)amino)pentan-2-yl)-5-phenyl-1H-imidazole-2-carboxamide] | < 0.05 |  | 
CC(C)C[C@@H](O)C(=O)N1CC[C@@H](C(C)(C)C)C[C@H]1C(=O)N[C@@H](C[C@@H]1CCNC1=O)C(=O)COC(F)(F)F [Compound 637, (2S,4R)-4-(tert-butyl)-1-((R)-2-hydroxy-4-methylpentanoyl)-N-((S)-3-oxo-1-((S)-2-oxopyrrolidin-3-yl)-4-(trifluoromethoxy)butan-2-yl)piperidine-2-carboxamide] |  | < 0.05 | 
[2H]C([2H])([2H])C([2H])([2H])C([2H])([2H])C([2H])([2H])C([2H])([2H])C(=O)N1CC2(CC2)C[C@H]1C(=O)N[C@@H](C[C@@H]1CCNC1=O)C(=O)COC(F)(F)F [Compound 733, (S)-5-(hexanoyl-d 11)-N-((S)-3-oxo-1-((S)-2-oxopyrrolidin-3-yl)-4-(trifluoromethoxy)butan-2-yl)-5-azaspiro[2.4]heptane-6-carboxamide] |  | < 0.05 | 
O=C1NCC[C@H]1C[C@H](NC(=O)[C@@H]1[C@H]2CCC[C@H]2CN1C(=O)C12CC(C(F)F)(CO1)C2)C(=O)COC(F)(F)F [Compound 321, (1S,3aR,6aS)-2-(4-(difluoromethyl)-2-oxabicyclo[2.1.1]hexane-1-carbonyl)-N-((S)-3-oxo-1-((S)-2-oxopyrrolidin-3-yl)-4-(trifluoromethoxy)butan-2-yl)octahydrocyclopenta-[c]pyrrole-1-carboxamide] | 0.05 to 0.2 |  | 
O=C(NCC(F)(F)F)C(=O)N1CC2(CC2)C[C@H]1C(=O)N[C@@H](C[C@@H]1CCNC1=O)C(=O)COC(F)(F)F [Compound 570] |  | 0.05 to 0.2 | 
O=C1NCC[C@H]1C[C@H](NC(=O)[C@@H]1CC2(CC2)CN1C(=O)C(F)(F)F)C(=O)COC(F)(F)F [Compound 703, (S)-N-((S)-3-oxo-1-((S)-2-oxopyrrolidin-3-yl)-4-(trifluoromethoxy)butan-2-yl)-5-(2,2,2-trifluoroacetyl)-5-azaspiro[2.4]heptane-6-carboxamide] |  |  | EC50: 0.2 to 0.5 µM
CC(C)C[C@H](NC(=O)Nc1ccccc1F)C(=O)N[C@@H](C[C@@H]1CCNC1=O)C(=O)COc1c(F)c(F)cc(F)c1F [Compound 84, (S)-2-(3-(2-fluorophenyl)ureido)-4-methyl-N-((S)-3-oxo-1-((S)-2-oxopyrrolidin-3-yl)-4-(2,3,5,6-tetrafluorophenoxy)butan-2-yl)pentanamide] | 0.05 to 0.2 |  | 
O=C1NCC[C@H]1C[C@H](NC(=O)[C@@H]1CC2(CC2)CN1C(=O)C1(O)CCC(F)(F)CC1)C(=O)COC(F)(F)F [Compound 421, (S)-5-(4,4-difluoro-1-hydroxycyclohexane-1-carbonyl)-N—((S)-3-oxo-1-((S)-2-oxopyrrolidin-3-yl)-4-(trifluoromethoxy)butan-2-yl)-5-azaspiro[2.4]heptane-6-carboxamide] |  | < 0.05 | 
O=C1NCC[C@H]1C[C@H](NC(=O)[C@@H]1CC2(CC2)CN1C(=O)c1cc(F)cc(F)c1)C(=O)COC(F)(F)F [Compound 699, (S)-5-(3,5-difluorobenzoyl)-N-((S)-3-oxo-l-((S)-2-oxopyrrolidin-3-yl)-4-(trifluoromethoxy)butan-2-yl)-5-azaspiro[2.4]heptane-6-carboxamide] |  | 0.05 to 0.2 | 
O=C(Nc1cc(F)ccc1F)C(=O)N1CC2(CC2)C[C@H]1C(=O)N[C@@H](C[C@@H]1CCNC1=O)C(=O)COC(F)(F)F [Compound 602, (S)-5-(2-((2,5-difluorophenyl)amino)-2-oxoacetyl)-N-((S)-3-oxo-1-((S)-2-oxopyrrolidin-3-yl)-4-(trifluoromethoxy)butan-2-yl)-5-azaspiro[2.4]heptane-6-carboxamide] |  | < 0.05 | 
COC(CC(C)C)C(=O)N1CC2(CC2)C[C@H]1C(=O)N[C@@H](C[C@@H]1CCNC1=O)C(=O)COC(F)(F)F (stereo partly drawn) [Compound 338, (6S)-5-(2-methoxy-4-methylpentanoyl)-N-((S)-3-oxo-1-((S)-2-oxopyrrolidin-3-yl)-4-(trifluoromethoxy)butan-2-yl)-5-azaspiro[2.4]heptane-6-carboxamide] | < 0.05 |  | 
CC(C)(C)[C@H](O)C(=O)N1CC2(CC2)C[C@H]1C(=O)N[C@@H](C[C@@H]1CCNC1=O)C(=O)COC(F)(F)F [Compound 344, (S)-5-((S)-2-hydroxy-3,3-dimethylbutanoyl)-N-((S)-3-oxo-1-((S)-2-oxopyrrolidin-3-yl)-4-(trifluoromethoxy)butan-2-yl)-5-azaspiro[2.4]heptane-6-carboxamide] | < 0.05 |  | 
CC(C)(F)c1cc(C(=O)N2C[C@H]3[C@@H]([C@H]2C(=O)N[C@@H](C[C@@H]2CCNC2=O)C(=O)COC(F)(F)F)C3(C)C)no1 [Compound 478, (1R,2S,5S)-3-(5-(2-fluoropropan-2-yl)isoxazole-3-carbonyl)-6,6-dimethyl-N-((S)-3-oxo-1-((S)-2-oxopyrrolidin-3-yl)-4-(trifluoromethoxy)butan-2-yl)-3-azabicyclo[3.1.0]hexane-2-carboxamide] |  | < 0.05 | 
CC(C)C[C@H](NC(=O)C(=O)Nc1ccccc1)C(=O)N[C@@H](C[C@@H]1CCNC1=O)C(O)COc1c(F)c(F)cc(F)c1F (stereo partly drawn) [Compound 49, N1-((2S)-1-(((2S)-3-hydroxy-1-((S)-2-oxopyrrolidin-3-yl)-4-(2,3,5,6-tetrafluorophenoxy)butan-2-yl)amino)-4-methyl-1-oxopentan-2-yl)-N2-phenyloxalamide] |  |  | EC50 (HeLa-ACE2 cells, SARS-CoV-2 infection, 24 h, cells given as a bound): > 1 µM
CC(C)(C)NC(=O)C(=O)N1[C@@H]2C[C@@H]2C[C@H]1C(=O)N[C@@H](C[C@@H]1CCNC1=O)C(=O)COC(F)(F)F [Compound 521] |  | 0.2 to 0.5 | 
CC(C)CC(C)(O)C(=O)N1CC2(CC2)C[C@H]1C(=O)N[C@@H](C[C@@H]1CCNC1=O)C(=O)COC(F)(F)F (stereo partly drawn) [Compound 360, (6S)-5-(2-hydroxy-2,4-dimethylpentanoyl)-N-((S)-3-oxo-1-((S)-2-oxopyrrolidin-3-yl)-4-(trifluoromethoxy)butan-2-yl)-5-azaspiro[2.4]-heptane-6-carboxamide] | < 0.05 |  | 
COc1cccc2[nH]c(C(=O)N[C@@H](CCCc3ccccc3)C(=O)N[C@@H](C[C@@H]3CCNC3=O)C(=O)COC(F)(F)F)cc12 [Compound 233, 4-methoxy-N-((S)-1-oxo-1-(((S)-3-oxo-1-((S)-2-oxopyrrolidin-3-yl)-4-(trifluoromethoxy)butan-2-yl)amino)-5-phenylpentan-2-yl)-1H-indole-2-carboxamide] | 0.05 to 0.2 |  | 
COCC1(NC(=O)C(=O)N[C@@H](CC(C)C)C(=O)N[C@@H](C[C@@H]2CCNC2=O)C(=O)COC(F)(F)F)CC1 [Compound 262, Nl-(1-(methoxymethyl)-cyclopropyl)-N2-((S)-4-methyl-1-oxo-1-(((S)-3-oxo-1-((S)-2-oxopyrrolidin-3-yl)-4-(trifluoromethoxy)butan-2-yl)amino)pentan-2-yl)oxalamide] | 0.05 to 0.2 |  | 
O=C(N[C@@H](CC1CC1)C(=O)N[C@@H](C[C@@H]1CCNC1=O)C(=O)COC(F)(F)F)c1cc2cc(F)ccc2[nH]1 [Compound 161, N-((S)-3-cyclopropyl-1-oxo-1-(((S)-3-oxo-1-((S)-2-oxopyrrolidin-3-yl)-4-(trifluoromethoxy)butan-2-yl)amino)propan-2-yl)-5-fluoro-1H-indole-2-carboxamide] | < 0.05 |  | 
CC(C)C[C@@H](O)C(=O)N1CCC2(CC2)C[C@H]1C(=O)N[C@@H](C[C@@H]1CCNC1=O)C(=O)COC(F)(F)F [Compound 640, (S)-6-((R)-2-hydroxy-4-methylpentanoyl)-N-((S)-3-oxo-1-((S)-2-oxopyrrolidin-3-yl)-4-(trifluoromethoxy)butan-2-yl)-6-azaspiro[2.5]octane-5-carboxamide] |  | 0.05 to 0.2 | 
